{
  "source": "patent US20050049278A1",
  "about": "“Benzo[1,3]dioxole compounds, pharmaceutical compositions thereof, and processes of making and using the same” (priority 2003, published 2005)",
  "assay_type_in_all_cases": "cell-based",
  "key": {"HEK293 cells [1]": {"test_system": "HEK293 cells", "assay": "Cell cycle analysis by FACS of HEK293 cells", "procedure": "Fluorescence-activated cell sorting (FACS) analysis was used to examine the cell cycle state when the cells were incubated with compounds of formula (I) as well as several control compounds, including DMSO, noscapine (a known G2/M inhibitor), and colchicine (a known G2/M inhibitor).\nIn particular, HEK293 cells were cultured in DMEM media (Celigro) supplemented with 10% Fetal Bovine Serum (Tissue Culture Biologicals) and 1× Penicillin/Streptomycin/Glutamine (Gibco). The cells were grown at 37° C. with 5% CO2, plated in six-well plates at 2.5×10^6 cells/well, and treated for 16 to 24 hrs with the compounds at the concentrations shown in Table 1, below. The cells were then triturated off the bottom of the wells, washed 1× with PBS, then fixed with 70% ethanol, and stored at 4° C. before staining and FACS analysis.\nThe DNA content of cells was determined using a FacsVantage SE flow cytometry system (Becton Dickinson, San Jose, Calif.) and a Cellular DNA Flow Cytometric Analysis Kit (Roche Applied Science, Indianapolis, Ind.). Cell cycle analysis was performed using Cylchred 1.0.2 software."}, "HEK293 cells [2]": {"test_system": "HEK293 cells", "assay": "HEK293 cell viability, CellTiter 96 Aqueous One Solution Cell Proliferation assay", "settings": "Homo sapiens, HEK293, 48 h, read-out: EC50", "procedure": "(§1) The effect of various doses of compounds 5a, 5a,b, and 9a on the viability of HEK293 cells was examined using the CellTiter 96 Aqueous One Solution Cell Proliferation assay (Promega). The HEK293 cells were cultured in DMEM media (Cellgro) or phenol red-free DMEM (Gibco) supplemented with 10% Fetal Bovine Serum (Tissue Culture Biologicals) and 1× Penicillin/Streptomycin/Glutamine (Gibco). The cells were grown at 37° C. with 5% CO2. HEK293 cells were seeded into each well of a 96-well plate (5000 cells/well) and incubated overnight to allow the cells to attach. The culture media was removed and replaced with 100 μl of phenol red-free media containing the compounds 5a, 5a,b, and 9a at various concentrations. The cells were allowed to grow in the presence of the compounds for 48 hrs. At the end of the treatment, 20 μl of CellTiter 96 Aqueous One Solution reagent was added directly into each well, and the cells were incubated at 37° C. for 2 hrs. This reagent converts to a form that absorbs light at 490 nm by living cells. Thus, absorbance at 490 nm is proportional to the number of viable cells. The 490 nm absorbance was measured on a BioRad plate reader. Control wells containing no cells were included in this assay to correct for background absorbance."}, "H4 (glioma)": {"test_system": "H4 (glioma)", "assay": "Cell viability (cell proliferation assay), H4", "settings": "48 to 72 hr exposure", "procedure": "as §1, with “HEK293” for “The effect of various doses of compounds 5a, 5a,b, and 9a on the viability of HEK293 cells was examined using the CellTiter 96 Aqueous One Solution Cell Proliferation assay (Promega). The HEK293 cells were cultured in DMEM media (Cellgro) or phenol red-free DMEM (Gibco) supplemented with 10% Fetal Bovine Serum (Tissue Culture Biologicals) and 1× Penicillin/Streptomycin/Glutamine (Gibco). The cells were grown at 37° C. with 5% CO2. HEK293”\n(§2) The effect of compound 9a on the viability of cancer cell lines as well as dividing and non-dividing mouse Swiss3T3 cells was studied.\n(§3) In particular, the cell proliferation assay, as described in Example 15, was used to test the effect of a 48 to 72 hr exposure of these cell lines to compound 9a at various concentrations."}, "[3]": {"test_system": "HeLa (cervical adenocarcinoma)", "assay": "Cell viability (cell proliferation assay), HeLa", "settings": "Homo sapiens, 48 to 72 hr exposure", "procedure": "as §1, with “HEK293” for “The effect of various doses of compounds 5a, 5a,b, and 9a on the viability of HEK293 cells was examined using the CellTiter 96 Aqueous One Solution Cell Proliferation assay (Promega). The HEK293 cells were cultured in DMEM media (Cellgro) or phenol red-free DMEM (Gibco) supplemented with 10% Fetal Bovine Serum (Tissue Culture Biologicals) and 1× Penicillin/Streptomycin/Glutamine (Gibco). The cells were grown at 37° C. with 5% CO2. HEK293”\nas §2, §3"}, "U937 (lymphoma)": {"test_system": "U937 (lymphoma)", "assay": "Cell viability (cell proliferation assay), U937", "settings": "Homo sapiens, U-937, 48 to 72 hr exposure", "procedure": "as §1, with “HEK293” for “The effect of various doses of compounds 5a, 5a,b, and 9a on the viability of HEK293 cells was examined using the CellTiter 96 Aqueous One Solution Cell Proliferation assay (Promega). The HEK293 cells were cultured in DMEM media (Cellgro) or phenol red-free DMEM (Gibco) supplemented with 10% Fetal Bovine Serum (Tissue Culture Biologicals) and 1× Penicillin/Streptomycin/Glutamine (Gibco). The cells were grown at 37° C. with 5% CO2. HEK293”\nas §2, §3"}, "HL-60 (leukemia)": {"test_system": "HL-60 (leukemia)", "assay": "Cell viability (cell proliferation assay), HL-60", "settings": "Homo sapiens, 48 to 72 hr exposure", "procedure": "as §1, with “HEK293” for “The effect of various doses of compounds 5a, 5a,b, and 9a on the viability of HEK293 cells was examined using the CellTiter 96 Aqueous One Solution Cell Proliferation assay (Promega). The HEK293 cells were cultured in DMEM media (Cellgro) or phenol red-free DMEM (Gibco) supplemented with 10% Fetal Bovine Serum (Tissue Culture Biologicals) and 1× Penicillin/Streptomycin/Glutamine (Gibco). The cells were grown at 37° C. with 5% CO2. HEK293”\nas §2, §3"}, "[4]": {"settings": "HEK293, 0.1 μM, treated 16 to 24 hrs"}},
  "note": "Where two headings read alike, the source gives them in different places.",
  "data": [
    {"smiles": "COc1ccc2c(c1N)C(=O)O[C@@H]2[C@H]1c2c(cc3c(c2OC)OCO3)CCN1C", "note": "[Compound 9a, 7-amino-6-methoxy-3-(4-methoxy-6-methyl-5,6,7,8-tetrahydro-[1,3]dioxolo[4,5-g]isoquinolin-5-yl)-3H-isobenzofuran-1-one]", "values": [
      {"measurement": "Percent of Cells in G1", "setting": "HEK293 cells [1]; [4]", "value": 1, "unit": "%"},
      {"measurement": "Percent of Cells in G2/M", "setting": "HEK293 cells [1]; [4]", "value": 92.1, "unit": "%"},
      {"measurement": "Percent of Cells in S", "setting": "HEK293 cells [1]; [4]", "value": 6.9, "unit": "%"},
      {"measurement": "concentration at which activity was observed", "setting": "HEK293 cells [1]; HEK293, G2/M accumulation", "value": 0.1, "unit": "µM"},
      {"measurement": "accumulation of cells in G2/M", "setting": "HEK293 cells [1]; HEK293, concentrations as in Table 1", "value": "~90", "unit": "%"},
      {"measurement": "EC50", "setting": "HEK293 cells [2]", "value": "< 50", "unit": "nM"},
      {"measurement": "EC50", "setting": "HEK293 cells [2]; text summary", "value": "< 1000", "unit": "nM"},
      {"measurement": "EC50", "setting": "H4 (glioma)", "value": "< 50", "unit": "nM"},
      {"measurement": "EC50", "setting": "[3]", "value": "< 50", "unit": "nM"},
      {"measurement": "EC50", "setting": "U937 (lymphoma)", "value": "< 50", "unit": "nM"},
      {"measurement": "EC50", "setting": "HL-60 (leukemia)", "value": "< 50", "unit": "nM"}
    ]}
  ]
}
